Experimental data reported in patent publication US5492930A, “Method and formulation for treating CNS disorders” (Schering Corporation, priority 1994, dated 1996).
Read-outs that look alike come from different tables or passages of the source.

What was measured:
[1] = system: electroconvulsive shock (ECS) induced convulsions; test: blocking electroconvulsive shock (ECS) induced convulsions (Swinyard et al. procedures); format: in vivo
[2] = system: scopolamine induced cognitive deficit; test: passive avoidance response (PAR) test, scopolamine induced cognitive deficit; format: in vivo; conditions: mice, sc or po (FIGS. 1 and 2)
Method: FIGS. 1 and 2 are plots showing the mean latency time in the passive avoidance response (PAR) test of Compound I and arecoline in reversing scopolamine induced cognitive deficits where Compound I is administered subcutaneously (sc) or orally (po).
(§1) See, for example Dilts and Berry, J. Pharmacology and Experimental Therapeutics 58, 279-285 (1967).

[3] = system: amnestic effects of MK-801; test: passive avoidance response (PAR) test, amnestic effects of MK-801; format: in vivo; conditions: mice
Text: FIG. 3 is a plot showing the mean latency time in the PAR test of felbamate and Compound I in blocking the amnestic effects of MK-801.
FIG. 4 is a plot showing the mean latency time in the PAR test of Compound I and the corresponding monoacid-monocarbamate.
(§2) The NMDA receptor is strongly implicated in the production of long-term potentiation and subsequent memory processes (Morris, et al., Nature Vol. 319, pp 774-776 (1986)). Blockade of these sites produces amnestic effects in mice on the passive avoidance response.

[4] = system: cognitive deficits (scopolamine, MK-801); test: cognitive enhancement (Examples I and II overall); format: in vivo, mice; conditions: data of Examples I and II
Text: as §1, §2

[5] = literature statement; cited from earlier work
[6] = system: amnestic effects of MK-801; conditions: Chiamulera et al. 1990; cited from earlier work
[7] = system: scopolamine induced cognitive deficit; conditions: passive avoidance response test, mice; cited from earlier work
[8] = SC, blocking ECS induced convulsions, read-out: ED50

Compound: NC(=O)N1c2ccccc2C=Cc2ccccc21 [Carbamazepine]
- ED50 [1, 8]: 12 mg/kg

Compound: CCCC(CCC)C(=O)O [Valproate]
- ED50 ([1]; sc): 550 mg/kg

Compound: O=C1NC(=O)C(c2ccccc2)(c2ccccc2)N1 [Dilantin]
- ED50 [1, 8]: 5.5 mg/kg

Compound: NC(=O)OCC(CO)c1ccccc1 (stereo not drawn) [Compound I, 2-phenyl-1,3-propanediol monocarbamate]
- effectiveness in blocking ECS induced convulsions vs felbamate and other known anti-convulsants ([1]; in words): significantly less effective than felbamate and other known anti-convulsants
- ED50 ([1]; sc): 173 mg/kg
- antagonism of the amnestic effects of scopolamine [2]: antagonist for the amnestic effects of scopolamine over a very wide dosage range
- blocking the amnestic effects of MK-801 [3]: effectively blocks the amnestic effects of MK-801 in this model at low doses
- effectiveness in blocking the effects of MK-801 vs the corresponding monoacid-monocarbamate [3]: more effective than the corresponding monoacid-monocarbamate
- effectiveness vs the corresponding dicarbamate and monoacid-monocarbamate compounds [4]: significantly more effective than the corresponding dicarbamate and monoacid-monocarbamate compounds

Compound: NC(=O)OCC(COC(N)=O)c1ccccc1 [Felbamate, 2-phenyl-1,3-propanediol dicarbamate]
- ED50 [1, 8]: 42.2 mg/kg
- blocking the amnestic effects of MK-801 [3]: does not block the effect of MK-801
- anticonvulsant effect [5]: effective anticonvulsant agent

Compound: CCC1(c2ccccc2)C(=O)NC(=O)NC1=O [Phenobarbital]
- ED50 ([1]; sc): 12 mg/kg

Compound: C[C@]12N[C@H](Cc3ccccc31)c1ccccc12 [MK-801]
- cognitive deficits produced [6]: produces cognitive deficits

Compound: CN1[C@@H]2C[C@@H](OC(=O)[C@H](CO)c3ccccc3)C[C@H]1[C@@H]1O[C@@H]12 [Scopolamine]
- amnestic effect [7]: well-known amnestic for mice in a passive avoidance response test
